Source: paper PMC5339874, “Fluorene-9-bisphenol is anti-oestrogenic and may cause adverse pregnancy outcomes in mice” (Nature Communications, 2017)

Tests used:
[1] = Analysis of BHPF in human serum (GC–MS); type: in vivo
From the text: In China, college students usually undergo a physical examination before graduation. The volunteers in this study were senior students who were undergoing a physical examination in Beijing. Fifty male and 50 female healthy volunteers (mean age, 23.5±1.2 years) who habitually used plastic water bottles were randomly recruited to participate in this study in June 2015, after appropriate ethical approval was received from the Human Ethics Committee of the Peking University Peoples' Hospital. Each participant provided informed consent and volunteered to give one 10-ml random sample of blood. Fasting blood was collected at Peking University Hospital Medical Center with vacutainer blood collection device (Chengwu Yongkang Medical Products Ltd., China) between 8 and 9 h. […] The blood was collected directly into plain 10-ml glass vacutainer tubes and spun down 30 min later for serum preparation. The serum samples were stored in glass tubes at −80 °C until analysis. The samples were fortified with 5 ng of surrogate standard BHPF-d7, and the pH was adjusted to 6.5 with ammonium acetate. β-Glucuronidase/arylsulfatase (20 μl; Sigma-Aldrich, St Louis, MO) was added to the samples, and they were incubated at 37 °C for 20 h to allow deglucuronidation. […]

sprr2a and sprr2b = test: Q-RT-PCR of sprr2a and sprr2b in uteri after 10-day dosing; type: in vivo, mice; settings: 10 days; P<0.05
Experimental: The uteri, ovaries and livers were collected for total RNA isolation. Total RNA was isolated using Trizol reagent (Invitrogen) and further purified by NucleoSpin RNA Clean-up (Macherey-Nagel, Germany). Fluorescence labelling of the RNA samples was performed with a Jingxin cRNA linear amplification and labelling kit (CapitalBio) according to the manufacturer's instructions. The total RNA from each pool of tissue samples (a mixture from three animals) was used for microarray analysis. Cy3 dCTP was used to label the samples. The labelled products were added to SurePrint G3 mouse gene expression 8 × 60 K microarrays (Agilent) and incubated overnight at 42 °C. Following hybridization, the gene arrays were washed and scanned using an Agilent G2565CA Microarray Scanner. Glyceraldehyde 3-phosphate dehydrogenase (GAPDH) was used as an endogenous control to monitor the quality of the target preparation. The data were processed with feature extraction software (GeneSpring GX v.11; Agilent). The raw signals were log-transformed and normalized with the percentile shift normalization method. All arrays met the minimum Agilent QA/QC standards. To verify the data from the gene array, 14 genes were chosen as candidates for Q-RT-PCR. Primers are listed in Supplementary Table 4. GAPDH was used as an endogenous control. […] The relative expression was quantified using the 2^(−ΔΔCt) method. […]

CD-1 mice = test: Global gene expression microarray of livers, ovaries and uteri; type: in vivo
Experimental: The uteri, ovaries and livers were collected for total RNA isolation. Total RNA was isolated using Trizol reagent (Invitrogen) and further purified by NucleoSpin RNA Clean-up (Macherey-Nagel, Germany). Fluorescence labelling of the RNA samples was performed with a Jingxin cRNA linear amplification and labelling kit (CapitalBio) according to the manufacturer's instructions. The total RNA from each pool of tissue samples (a mixture from three animals) was used for microarray analysis. Cy3 dCTP was used to label the samples. The labelled products were added to SurePrint G3 mouse gene expression 8 × 60 K microarrays (Agilent) and incubated overnight at 42 °C. Following hybridization, the gene arrays were washed and scanned using an Agilent G2565CA Microarray Scanner. Glyceraldehyde 3-phosphate dehydrogenase (GAPDH) was used as an endogenous control to monitor the quality of the target preparation. The data were processed with feature extraction software (GeneSpring GX v.11; Agilent). The raw signals were log-transformed and normalized with the percentile shift normalization method. All arrays met the minimum Agilent QA/QC standards. To verify the data from the gene array, 14 genes were chosen as candidates for Q-RT-PCR. Primers are listed in Supplementary Table 4. GAPDH was used as an endogenous control. Amplification was performed using SYBR Green PCR master mix (Applied Biosystems) according to the manufacturer's instructions. The relative expression was quantified using the 2^(−ΔΔCt) method. The Gene Ontology (GO) and KEGG pathway enrichment analyses were performed with DAVID (refs [40], [41]).

[2] = system: MCF-7 human breast cancer cells; design: method as in earlier work; settings: granted patent CN102727470; cited from earlier work
[3] = 50 mg/kg bw/d BHPF, 3 days, endogenous control
[4] = liver, 50 mg kg^−1 bw d^−1, 3 days
[5] = ovaries, 50 mg kg^−1 bw d^−1, 3 days
[6] = uteri, 50 mg kg^−1 bw d^−1, 3 days

Oc1ccc(C2(c3ccc(O)cc3)c3ccccc3-c3ccccc32)cc1 [BHPF, 9,9-bis(4-hydroxyphenyl)-fluorene]
maximal serum BHPF level ([1]; human volunteers): 0.7 ng/mL | mean serum BHPF level ([1]; volunteers with detectable BHPF): 0.34 ± 0.21 ng/mL | doses significantly down-regulating sprr2a and sprr2b in uteri (sprr2a and sprr2b): ≥ 9.26 mg kg^−1 bw d^−1 | genes involved in biotransformation and oxidation-reduction processes (CD-1 mice; 50 mg kg^−1 bw d^−1, 3 days): up-regulated in the uterus but not in the liver | Actb gene expression change, liver, Microarray (CD-1 mice; 50 mg/kg bw/d BHPF, 3 days): 1.09 | Actb gene expression change, ovary, Microarray (CD-1 mice; 50 mg/kg bw/d BHPF, 3 days): 1.34 | Actb gene expression change, uterus, Microarray (CD-1 mice; 50 mg/kg bw/d BHPF, 3 days): 1.07 | Cfd gene expression change, liver, Microarray (CD-1 mice; 50 mg/kg bw/d BHPF, 3 days): -3.11 | Cfd gene expression change, ovary, Microarray (CD-1 mice; 50 mg/kg bw/d BHPF, 3 days): 4.13 | Cfd gene expression change, uterus, Microarray (CD-1 mice; 50 mg/kg bw/d BHPF, 3 days): -6.54 | Orm1 gene expression change, liver, Microarray (CD-1 mice; 50 mg/kg bw/d BHPF, 3 days): -1.65 | Orm1 gene expression change, ovary, Microarray (CD-1 mice; 50 mg/kg bw/d BHPF, 3 days): 1.18 | Orm1 gene expression change, uterus, Microarray (CD-1 mice; 50 mg/kg bw/d BHPF, 3 days): 23.12 | Spp1 gene expression change, liver, Microarray (CD-1 mice; 50 mg/kg bw/d BHPF, 3 days): -1.30 | Spp1 gene expression change, ovary, Microarray (CD-1 mice; 50 mg/kg bw/d BHPF, 3 days): -1.67 | Spp1 gene expression change, uterus, Microarray (CD-1 mice; 50 mg/kg bw/d BHPF, 3 days): 2.57 | Sprr1a gene expression change, liver, Microarray (CD-1 mice; 50 mg/kg bw/d BHPF, 3 days): 2.17 | Sprr1a gene expression change, ovary, Microarray (CD-1 mice; 50 mg/kg bw/d BHPF, 3 days): 1.17 | Sprr1a gene expression change, uterus, Microarray (CD-1 mice; 50 mg/kg bw/d BHPF, 3 days): -3.44 | Sprr2a2 gene expression change, liver, Microarray (CD-1 mice; 50 mg/kg bw/d BHPF, 3 days): 2.10 | Sprr2a2 gene expression change, ovary, Microarray (CD-1 mice; 50 mg/kg bw/d BHPF, 3 days): -12.01 | Sprr2a2 gene expression change, uterus, Microarray (CD-1 mice; 50 mg/kg bw/d BHPF, 3 days): -5.24 | Sprr2b gene expression change, liver, Microarray (CD-1 mice; 50 mg/kg bw/d BHPF, 3 days): 2.75 | Sprr2b gene expression change, ovary, Microarray (CD-1 mice; 50 mg/kg bw/d BHPF, 3 days): -2.07 | Sprr2b gene expression change, uterus, Microarray (CD-1 mice; 50 mg/kg bw/d BHPF, 3 days): -13.20 | Sprr2f gene expression change, liver, Microarray (CD-1 mice; 50 mg/kg bw/d BHPF, 3 days): 3.69 | Sprr2f gene expression change, ovary, Microarray (CD-1 mice; 50 mg/kg bw/d BHPF, 3 days): -5.81 | Sprr2f gene expression change, uterus, Microarray (CD-1 mice; 50 mg/kg bw/d BHPF, 3 days): -2.52 | Sprr2g gene expression change, liver, Microarray (CD-1 mice; 50 mg/kg bw/d BHPF, 3 days): 2.09 | Sprr2g gene expression change, ovary, Microarray (CD-1 mice; 50 mg/kg bw/d BHPF, 3 days): -5.71 | Sprr2g gene expression change, uterus, Microarray (CD-1 mice; 50 mg/kg bw/d BHPF, 3 days): -2.13 | chil3 gene expression change, liver, Microarray (CD-1 mice; 50 mg/kg bw/d BHPF, 3 days): -8.53 | chil3 gene expression change, ovary, Microarray (CD-1 mice; 50 mg/kg bw/d BHPF, 3 days): -9.16 | chil3 gene expression change, uterus, Microarray (CD-1 mice; 50 mg/kg bw/d BHPF, 3 days): -6.60 | cyp2e1 gene expression change, liver, Microarray (CD-1 mice; 50 mg/kg bw/d BHPF, 3 days): -1.01 | cyp2e1 gene expression change, ovary, Microarray (CD-1 mice; 50 mg/kg bw/d BHPF, 3 days): 1.25 | cyp2e1 gene expression change, uterus, Microarray (CD-1 mice; 50 mg/kg bw/d BHPF, 3 days): 5.02 | ll1f6 gene expression change, liver, Microarray (CD-1 mice; 50 mg/kg bw/d BHPF, 3 days): 1.95 | ll1f6 gene expression change, ovary, Microarray (CD-1 mice; 50 mg/kg bw/d BHPF, 3 days): -1.11 | ll1f6 gene expression change, uterus, Microarray (CD-1 mice; 50 mg/kg bw/d BHPF, 3 days): -10.96 | serp1d gene expression change, liver, Microarray (CD-1 mice; 50 mg/kg bw/d BHPF, 3 days): 1.02 | serp1d gene expression change, ovary, Microarray (CD-1 mice; 50 mg/kg bw/d BHPF, 3 days): 1.13 | serp1d gene expression change, uterus, Microarray (CD-1 mice; 50 mg/kg bw/d BHPF, 3 days): 17.78 | GAPDH gene expression change, liver, Microarray (CD-1 mice; [3]): 1.02 | GAPDH gene expression change, ovary, Microarray (CD-1 mice; [3]): 1.03 | GAPDH gene expression change, uterus, Microarray (CD-1 mice; [3]): -1.02 | share of modified genes down-regulated (CD-1 mice; [4]): 22.3% | share of modified genes up-regulated (CD-1 mice; [4]): 77.7% | expression of sprr2a, sprr2b, sprr2f and sprr2g (response to E2 stimuli) (CD-1 mice; [5]): down-regulated | share of modified genes down-regulated (CD-1 mice; [5]): 65.5% | share of modified genes up-regulated (CD-1 mice; [5]): 34.5% | expression pattern of oestrogen-responsive genes compared with that induced by E2 (CD-1 mice; [6]): opposite expression pattern | share of modified genes down-regulated (CD-1 mice; [6]): 43.4% | share of modified genes up-regulated (CD-1 mice; [6]): 56.6% | proliferation of MCF-7 human breast cancer cells [2]: inhibited the proliferation
